Measurements taken from patent US20130225611A1, “Compositions and Methods for Reducing Cancer Cell Proliferation and Modulating Importin-Beta Function” (THE REGENTS OF THE UNIVERSITY OF CALIFORNIA, priority 2011, published 2013).

Columns and labels:
[1] = system: CRM1-mediated export of NFAT-GFP; test: NFAT-GFP nuclear export after ionomycin washout in HEK 293 cells; type: cell-based, human; details: HEK 293, importazole 40 μM, leptomycin B 10 ng/ml, 1 hour after ionomycin washout
Description: For all import and export experiments, HEK 293 cells stably expressing NFAT-GFP were grown on glass coverslips to approximately 50% confluency prior to drug treatment. In all cases, importazole was used at 40 μM and leptomycin B was used at 10 ng/ml. For controls, DMSO was used at a concentration of 0.4%. Ionomycin was added at 1.25 μM. Importazole and leptomycin B treatments were all for 1 hour. In all experiments cells were fixed with 4% formaldehyde prior to fluorescence microscopy. DNA was visualized with 1 μg/ml Hoechst dye.

[2] = system: spindle assembly around sperm chromosomes; test: spindle assembly in metaphase-arrested Xenopus egg extracts; set-up: species or system Xenopus laevis; details: 100 μM importazole
Description: In order to determine whether importazole also disrupts mitosis, importazole was first tested in metaphase-arrested Xenopus egg extracts, which rely heavily on a RanGTP gradient for spindle assembly around sperm chromosomes. […] The effect was similar to that of adding a truncated importin-β (amino acids 71-876), a version that no longer binds to RanGTP and therefore sequesters its cargoes. […] Thus, importazole caused dramatic effects on spindle assembly consistent with the known role of the importin-β/RanGTP pathway in the Xenopus egg extract system, and is not a general microtubule inhibitor.
Xenopus laevis egg extracts were prepared as described by Hannak et al. (2006) Nat. Protoc. 1:2305-2314. For in vitro spindle assembly, Xenopus laevis sperm DNA was added to egg extracts supplemented with rhodamine-labeled tubulin. Asters were formed by addition of 5% DMSO. DNA was stained with Hoechst dye. The formation of microtubule-based structures was assessed using epifluorescence microscopy after a 30-minute room temperature incubation. In vitro microtubule polymerization and pelleting assays were performed by incubating 25 μM bovine tubulin, 1 mM GTP, and 5% DMSO in BRB80 buffer (80 mM PIPES, 1 mM MgCl2, 1 mM EGTA, pH 6.8) at 37° C. for 30 minutes. Polymerized microtubules were pelleted through a sucrose cushion, resuspended, and analyzed by SDS PAGE.

Compound | CRM1-mediated export of NFAT-GFP [1] | sperm nuclei at which normal bipolar microtubule structures were prevented from forming [2]
CCC(=C/[C@H](C)C/C=C/C(C)=C/[C@@H](C)C(=O)[C@@H](C)[C@H](O)[C@@H](C)C/C(C)=C/C(=O)O)/C=C/[C@@H]1OC(=O)C=C[C@@H]1C [leptomycin B, reference compound] | blocked | 
truncated importin-β (amino acids 71-876): truncated importin-β that no longer binds to RanGTP and therefore sequesters its cargoes |  | similar
